One series relates to C57B1/6 mice. Nature of the series: Acute in vivo food intake test in mice. The conditions noted are these: 24 h food intake, 100 mg/kg/day oral gavage in two half doses, high caloric diet, male or female mice. The procedure: 2. Acute In Vivo Food Intake Test in Mice
The studies were carried out in male or female C57B1/6 mice (n=8-12 per group). The mice were kept on an inverted 12/12h light/dark cycle (lights on 22:00). They were allowed food (high caloric diet) and water ad libitum. Food intake and water consumption was measured daily. The test compound of Formula I was suspended in 1% methylcellulose in water and 2% (v/v) of Poloxamer 188 (Lutrol F68®) and administered by oral gavage at a dose of 100 mg/kg/day. One half of the dose was administered at 7.00-9.00 h; the remaining half of the dose was administered between 15.00-15.30 h.
In the test model described above, the test substances caused a decrease of the animals' 24 h food intake to the percentages of food intake when compared to control as given in the following Table 2.

Series [1] concerns the target T1, human carbonic anhydrase isoenzyme II (hCA II) (Homo sapiens, UniProt P00918).
T1 construct: human carbonic anhydrase isoenzyme II from erythrocytes (Sigma-Aldrich); purchased Sigma-Aldrich; host or cells: human erythrocytes (natural source)
Nature of the series: In vitro inhibition of human carbonic anhydrase isoenzyme II (hCA II), dansylamide fluorescence. In kind it is binding. The note with it: hCA II from erythrocytes 10^-7 M/L, read at 60 min 37° C., single measurements, read-out: IC50 (hCA II inhibiting effect in vitro). The procedure:
1. In Vitro Inhibition of Human Carbonic Anhydrase Isoenzyme II (hCA II)
The test compounds of Formula I in 96 well microplates were diluted with aqua bidest by using an automatic pipettor (CyBiWell®). From the different dilution plates, aliquots of 20 μl were transferred to the 96 well black assay plates with a pipetting station (Tecan Genesis®). In a second step, 148 μl of potassium phosphate buffer (20 mM, pH 7.4) was added, and as a third step, 20 μl of enzyme solution (1 μM human carbonic anhydrase isoenzyme II from erythrocytes (Sigma-Aldrich), dissolved in potassium phosphate buffer) incubated for 60 min at room temperature and the fluorescence signal (Tecan Ultra® fluorescence reader; excitation wavelength: 280 nm; emission wavelength: 465 nm) read at the end of the preincubation period (FLU-1). After the preincubation time, 20 μl of aqueous dansylamide solution (1 mM dansylamide (Sigma-Aldrich), dissolved in hydrochloric acid) were added and the fluorescence signal read every 10 min for a period of 60 min at 37° C. For calculation, the fluorescence data of the time point 60 min (FLU-2) were used. The total volume of assay mixture amounted to 208 μl. The final concentration of carbonic anhydrase II was 10^−7 M/L, of dansylamide 2.25×10^−6 and of compounds from 10^−8 M/L up to 10^−5 M/L. Final concentration of DMSO as compound solvent was 0.1 mM. […]

These results are taken from patent US7772225B2, “N-sulfamoyl-piperidineamides for the treatment or inhibition of obesity and related conditions” (Solvay Pharmaceuticals GmbH, priority 2005, dated 2010).

For orientation: melting point means the temperature of the solid-liquid transition. One may read the IC50 as the concentration needed to halve the response being measured.

Molecule `NS(=O)(=O)N1CCC(N(C(=O)Nc2ccc(C(F)(F)F)cc2)c2cccnc2)CC1` displayed a melting point of 188 to 191 °C.

`NS(=O)(=O)N1CCC(NC(=O)Nc2ccc(F)cc2)CC1` [Example 1, 4-{[[(4fluorophenyl)amino]-carbonyl]amino}piperidine-1-sulfonamide]: the “food intake [% of control]” value in the series on C57B1/6 mice is reported as 83 % of control. For `NS(=O)(=O)N1CCC(n2c(=O)[nH]c3ccccc32)CC1` [Example 10], the IC50 in series [1] was found to be 7.3 µM.

For the molecule `NS(=O)(=O)N1CCC(N(Cc2ccccc2)C(=O)Nc2ccccc2)CC1` [Example 28], the IC50 in series [1] stood at 6.6 µM.
